In test [1] the test system is lymphocytic leukemia P388. The test can be described thus: in vivo lymphocytic leukemia P388 test. Also on record: species or system mice. The settings on record: Mus musculus, P388, ip, 720 h, two single doses four days apart, read-out: T/C × 100 (Percent); for response vs control in vivo at 0.78 mg/kg: P388, Dose 0.78 mg/kg intraperitoneally; for response vs control in vivo at 1.56 mg/kg: P388, Dose 1.56 mg/kg intraperitoneally; for response vs control in vivo at 25 mg/kg: P388, Dose 25 mg/kg intraperitoneally; for response vs control in vivo at 6.25 mg/kg: P388, Dose 6.25 mg/kg intraperitoneally. As to the method:
The in vivo lymphocytic leukemia P388 test is carried out by the United States National Cancer Institute. The animals used are either male or female CD2F, mice. There are six to seven animals per test group. The tumor transplant is by intraperitoneal injection of dilute ascitic fluid containing cells of lymphocytic leukemia P388. The test compounds are administered intraperitoneally in two single doses with a four-day interval between doses at various dose levels following tumor inoculation. The animals are weighed and survivors are recorded on a regular basis for 30 days. A ratio of survival time for treated (T)/ control (C) animals is calculated. The criterion for efficacy is T/C x 100 > 125%. The positive control compound in this test is 1,4-dihydroxy-5,8-[bis[[2-[(2-hydroxyethyl)amino]-ethyl]amino]-9,10-anthracene- dione given at dosages ranging from 12.0 to 0.075 mg/kg. See Cancer Chemotherapy Reports, Part 3, 3, 1 (1972) for a comprehensive discussion of the protocol.

The next test deals with Aerobacter aerogenes. The test can be described thus: agar plate paper-disc inhibition zone screening. Format: cell-based. Particulars: Klebsiella aerogenes, read-out: Inhibition Zone Diameter mm (Dose mg/ml) A. Aerogenes; for zone of inhibition at 500 µg/mL: Dose 0.5 mg/ml; for zone of inhibition at 3000 µg/mL: Dose 3.0 mg/ml. As to the method:
(§1) The bacterial and yeast isolates are maintained in agar slants or in liquid media, hereby designated as inoculum media. The cultures are transferred at regular intervals in such media. (See Table for the corresponding inoculum media of each culture.) The organisms are generally transferred on to agar slants or liquid inoculum media and incubated overnight (18-20 hours): 37°C for the bacterial isolates and 28°C for the fungal cultures.
(§2) The microbial cells from the overnight agar slants are then scraped off and suspended in saline solution (0.85% NaCI). The microbial concentrations are adjusted to a light transmittancy of 20-35%, Junior Coleman Spectrophotometer (555 M). For the organisms that are maintained in liquid media, an aliquot of the culture suspension is simply diluted with saline to 20-35% light transmittancy.
(§3) The above microbial suspension serve as inocula for the assay plates. Thus, 0.16-10 ml (see Table for exact amount) are used to inoculate 100 ml of the molten-agar assay medium.
(§4) Stainless steel frames, 12.3 x 25.3 cm (ID) and glass plates, 15.3 x 31.7 cm are used to make the test trays. The frames are attached to the plates with tape at each end and the inner edges sealed with 2% agar. Twenty five ml of inoculated assay medium is spread evenly on each tray and allowed to solidify. The trays are covered, inverted, and refrigerated until used.
(§5) The compounds or samples to be tested are dissolved in suitable solvents, e.g., alcohols, dimethylsulfoxide, or N,N-dimethylformamide. The samples are generally dissolved so that the final concentration of the solvent is <10%.^* The compounds are tested at different concentrations: 3,000; 1,000; 500; 100; and 10 mcg/ml. Paper discs (12.7 mm diameter) are placed on the agar trays with forceps, then 0.08 ml of the dissolved compound is pipetted onto each disc using a 0.2 ml pipette.
(§6) The disked agar trays are incubated overnight (18-20 hours) at 37°C for the bacterial cultures and 28°C for the yeasts. The Penicillium avellaneium tray is incubated for at least […] since it is a slower- growing organism.
(§7) Active compounds show a zone of inhibition around the disc. The diameter of the zone is measured in mm. The zone diameter of active compounds ranges from a minimum of 13.5 mm to as high as 60 mm. The size of the zone diameter generally reflects the activity of the compound: the larger the zone the greater the activity.

The subject of another test is Streptococcus faecalis. Nature of the test: agar plate paper-disc inhibition zone screening. In kind it is cell-based. Particulars: Enterococcus faecalis, read-out: Inhibition Zone Diameter mm (Dose mg/ml) S. Faecalis; for zone of inhibition at 3000 µg/mL: Dose 3.0 mg/ml; for zone of inhibition at 1000 µg/mL: Dose 1.0 mg/ml. As to the method:
as §1, §2, §3, §4, §5, §6, §7

For another test, the system named is Escherichia coli. Nature of the test: agar plate paper-disc inhibition zone screening. Format: cell-based. Particulars: read-out: Inhibition Zone Diameter mm (Dose mg/ml) E. Coli; for zone of inhibition at 100 µg/mL: Dose 0.1 mg/ml; for zone of inhibition at 500 µg/mL: Dose 0.5 mg/ml; for zone of inhibition at 3000 µg/mL: Dose 3.0 mg/ml. As to the method:
as §1, §2, §3, §4, §5, §6, §7

Another test has as its system Bacillus subtilis. The test can be described thus: agar plate paper-disc inhibition zone screening. Format: cell-based. The settings on record: read-out: Inhibition Zone Diameter mm (Dose mg/ml) B. Subtilis; for zone of inhibition at 100 µg/mL: Dose 0.1 mg/ml; for zone of inhibition at 1000 µg/mL: Dose 1.0 mg/ml; for zone of inhibition at 3000 µg/mL: Dose 3.0 mg/ml. As to the method: as §1, §2, §3, §4, §5, §6, §7

Another test has as its system Penicillium avellaneum. Nature of the test: agar plate paper-disc inhibition zone screening. Format: cell-based. The settings on record: Hamigera avellanea, read-out: Inhibition Zone Diameter mm (Dose mg/ml) P. Avellaneum; for zone of inhibition at 3000 µg/mL: Dose 3.0 mg/ml. As to the method: The Penicillium avellaneum is grown for six days, at 28°C, on an agar medium. This is to allow sporulation of the culture. The organism is then harvested by scraping off the cells from the agar surface (mycelia and spores) and suspending them in saline solution containing 0.05% Tween 80.
The suspension is adjusted to a light transmittancy of 20%. One ml of this suspension is used to inoculate 100 ml of the molten-agar assay medium.
as §4, §5, §6, §7

`CCN(CC)CCn1nc2c3c(c(NCCNCCO)ccc31)C(=O)c1ccccc1-2` [Example 2]: the response vs control in vivo at 0.78 mg/kg in test [1] is 135%. The response vs control in vivo at 1.56 mg/kg in test [1] stood at 142%. Moreover, the response vs control in vivo at 25 mg/kg in test [1] was found to be 197%. In addition, the zone of inhibition at 500 µg/mL came to 18 mm with Aerobacter aerogenes and 15 mm with Streptococcus faecalis (Dose 0.5 mg/ml). In addition, the zone of inhibition at 100 µg/mL with Escherichia coli amounted to 14 mm; with Bacillus subtilis, 16 mm. Also, the zone of inhibition at 3000 µg/mL in the test on Penicillium avellaneum was 0 mm.
Consider `CCN(CC)CCn1nc2c3c(c(NCCNC)ccc31)C(=O)c1c(O)ccc(O)c1-2` [Example 31, 2-[2-(Diethylamino)ethyl]-7,10-dihydroxy-5-[[2-(methylamino)ethyl]amino]anthra[1,9-cd]pyrazol-6(2H)-one], for which, in test [1] (P388, Dose 3.12 mg/kg intraperitoneally), the response vs control in vivo at 3.12 mg/kg stood at 154%. For the same molecule, in test [1], the response vs control in vivo at 6.25 mg/kg is 163%. Besides, in test [1] (P388, Dose 12.5 mg/kg intraperitoneally), the response vs control in vivo at 12.5 mg/kg was 191%. Further, in test [1], the response vs control in vivo at 25 mg/kg was found to be 219%. Further, the response vs control in vivo at 50 mg/kg in test [1] (P388, Dose 50 mg/kg intraperitoneally) was 172%. The zone of inhibition at 500 µg/mL with Aerobacter aerogenes and with Escherichia coli was 16 mm throughout. The zone of inhibition at 3000 µg/mL worked out at 14 mm with Streptococcus faecalis and 0 mm in the test on Penicillium avellaneum. For the same molecule, in the test with Bacillus subtilis, the zone of inhibition at 1000 µg/mL amounted to 17 mm.
For `CN(C)CCn1nc2c3c(c(NCCNCCO)ccc31)C(=O)c1c(O)ccc(O)c1-2` [Example 32], in test [1], the response vs control in vivo at 0.78 mg/kg was found to be 161%. Further, the response vs control in vivo at 1.56 mg/kg in test [1] was determined as 163%. Also, in test [1], the response vs control in vivo at 6.25 mg/kg is 214%. Besides, the figures for the zone of inhibition at 1000 µg/mL in the test with Aerobacter aerogenes (Dose 1.0 mg/ml) and in the test with Bacillus subtilis were 14 mm and 15 mm, respectively. For the same molecule, the zone of inhibition at 3000 µg/mL with Streptococcus faecalis and with Penicillium avellaneum was 0 mm each time. For the same molecule, the zone of inhibition at 500 µg/mL in the test with Escherichia coli came out at 15 mm.
Take `O=C1c2c(O)ccc(O)c2-c2nn(CCNCCO)c3ccc(NCCN4CCOCC4)c1c23` [Example 61, 7,10-Dihydroxy-2-[2-[(2-hydroxyethyl)amino]ethyl]-5-[[2-(4-morpholinyl)ethyl]amino]anthra[1,9-cd]pyrazol-6(2H)-one]: the zone of inhibition at 3000 µg/mL in the test with Aerobacter aerogenes turned out to be 0 mm; in the test with Streptococcus faecalis it was 0 mm; in the test with Escherichia coli, 14 mm; in the test with Penicillium avellaneum, 0 mm. The zone of inhibition at 1000 µg/mL in the test on Bacillus subtilis came to 15 mm.
Consider `NCCNc1ccc2c3c(nn2CCN)-c2c(O)ccc(O)c2C(=O)c13` [Example 72, 2-(2-Aminoethyl)-5-[(2-aminoethyl)amino]-7,10-dihydroxyanthra[1,9-cd]pyrazol-6(2H)-one], for which the zone of inhibition at 3000 µg/mL in the test with Aerobacter aerogenes amounted to 14 mm; in the test with Streptococcus faecalis it was 0 mm; in the test with Escherichia coli, 0 mm; with Bacillus subtilis, 0 mm; with Penicillium avellaneum, 0 mm.
For the molecule `COCCn1nc2c3c(c(NCCN)ccc31)C(=O)c1c(O)ccc(O)c1-2` [Example 77, 5-[(2-Aminoethyl)amino]-7,10-dihydroxy-2-(2-methoxyethyl)anthra(1,9-cd]pyrazol-6(2H)-one], the zone of inhibition at 3000 µg/mL is 14 mm in the test with Aerobacter aerogenes; 0 mm with Streptococcus faecalis; 16 mm in the test with Escherichia coli; 16 mm in the test with Bacillus subtilis; 0 mm with Penicillium avellaneum.
Consider `O=C1c2c(NCCNCCO)cccc2-c2nn(CCNCCO)c3cccc1c23` [Example 81, 2-[2-[(2-Hydroxyethyl)amino]lethyl]-7-[[2-[(2-hydroxyethyl)amino]ethyl]amino]anthra[1,9-cd]pyrazol-6(2H)-one], for which the zone of inhibition at 500 µg/mL was 17 mm in the test on Aerobacter aerogenes and 16 mm with Bacillus subtilis (Dose 0.5 mg/ml). The zone of inhibition at 3000 µg/mL with Streptococcus faecalis and with Penicillium avellaneum was 0 mm each time. The zone of inhibition at 1000 µg/mL with Escherichia coli (Dose 1.0 mg/ml) came out at 20 mm.
Regarding `CCN(CC)CCn1nc2c3c(c(Cl)ccc31)C(=O)c1ccccc1-2` [H; Cl*; (CH2)2NEt2, 5-Chloro-2-[2-(diethylamino)ethyl]anthra[1,9-cd]pyrazol-6(2H)-one], the zone of inhibition at 500 µg/mL came to 14 mm in the test on Aerobacter aerogenes, 14 mm in the test on Escherichia coli and 16 mm with Penicillium avellaneum (Dose 0.5 mg/ml). The zone of inhibition at 1000 µg/mL in the test with Streptococcus faecalis turned out to be 16 mm. The zone of inhibition at 100 µg/mL in the test on Bacillus subtilis was 16 mm.
For `NCCn1nc2c3c(c(Cl)ccc31)C(=O)c1ccccc1-2` [H; Cl*; (CH2)2NH2, 2-(2-Aminoethyl)-5-chloroanthra[1,9-cd]pyrazol-6(2H)-one], the zone of inhibition at 100 µg/mL with Aerobacter aerogenes (Dose 0.1 mg/ml) stood at 25 mm; in the test on Escherichia coli it was 16 mm. In addition, the zone of inhibition at 3000 µg/mL with Streptococcus faecalis amounted to 0 mm; in the test with Bacillus subtilis, 14 mm; in the test with Penicillium avellaneum, 16 mm.
Turning to `CCN(CC)CC(O)Cn1nc2c3c(c(Cl)ccc31)C(=O)c1ccccc1-2` (stereo not shown) [H; Cl*; CH2CHOHCH2NEt2], the zone of inhibition at 3000 µg/mL in the test with Aerobacter aerogenes came to 17 mm. The zone of inhibition at 1000 µg/mL stood at 15 mm with Streptococcus faecalis, 14 mm with Bacillus subtilis and 16 mm in the test with Penicillium avellaneum (Dose 1.0 mg/ml). In the test with Escherichia coli, the zone of inhibition at 500 µg/mL is 14 mm.

The record behind these values is patent EP0103381B1, “Substituted anthra(1,9-cd)pyrazol-6(2H)-ones” (WARNER-LAMBERT COMPANY, priority 1982, dated 1984).
